Source: patent publication US12509445B2, “Herbicidally active 4-cyclopropyl-6-[4-(trifluormethyl)pyrazol-1-yl)]pyrimidines” (Bayer Aktiengesellschaft, priority 2019, dated 2025)

Assays:
Format in all cases: in vivo
[1] = test system: harmful plants such as Alopecurus myosuroides, Amaranthus retroflexus, Avena fatua, Echinochloa crus-galli, Matricaria inodora, Pharbitis purpurea, Polygonum …; experiment: Pre-emergence herbicidal action, summary in text; conditions: pre-emergence treatment
From the text: (§1) Seeds of monocotyledonous and dicotyledonous weed plants and crop plants are placed in plastic or organic plant pots and covered with soil. The compounds of the invention, formulated in the form of wettable powders (WP) or as emulsion concentrates (EC), are then applied onto the surface of the covering soil as aqueous suspension or emulsion with addition of 0.5% additive at a water application rate of 600 l/ha (converted). After the treatment, the pots are placed in a greenhouse and kept under good growth conditions for the trial plants. After about 3 weeks, the effect of the preparations is scored visually in comparison with untreated controls as percentages. For example, 100% activity=the plants have died, 0% activity=like control plants.
At the same time, some compounds according to the invention leave graminaceous crops such as barley, wheat, rye, millet/sorghum, maize, rice or sugarcane virtually undamaged when applied by the pre-emergence method, even at high active compound dosages. Some compounds are additionally also benign to dicotyledonous crops such as soya, cotton, oilseed rape or sugarbeet.

[2] = test system: Pharbitis purpurea (PHBPU); experiment: Pre-emergence herbicidal action; conditions: 320 g/ha, visual scoring after about 3 weeks vs untreated controls, 100% = plants have died
From the text: (§2) The abbreviations used here have the following meanings: • ABUTH Abutilon theophrasti • AMARE Amaranlhus retroflexus • CYPES Cyperus serotinus • ECHCGEchinocloa crus galli • LOLRI Lolium rigidum Gaudin • PHBPU Pharbitis purpurcum • SETVI Setaria viridis • VERPE Veronica persica • ALOMY Alopccurus myosuroides • AVEFA Avena fatua • DIGSA Digitaria sanguinalis • LOLMU Lolium multiflorum • MATIN Matricaria inodora • POLCO Polygonum convolvulus • STEME Stellaria media • VIOTR Viola tricolor
as §1

[3] = test system: Veronica persica (VERPE); experiment: Pre-emergence herbicidal action; conditions: 320 g/ha, visual scoring after about 3 weeks vs untreated controls, 100% = plants have died
From the text: as §2, §1

[4] = test system: Abutilon theophrasti (ABUTH); experiment: Pre-emergence herbicidal action; conditions: 320 g/ha, visual scoring after about 3 weeks vs untreated controls, 100% = plants have died
From the text: as §2, §1

[5] = test system: Lolium multiflorum (LOLMU); experiment: Pre-emergence herbicidal action; conditions: 320 g/ha, visual scoring after about 3 weeks vs untreated controls, 100% = plants have died
From the text: as §2, §1

[6] = test system: Amaranthus retroflexus (AMARE); experiment: Pre-emergence herbicidal action; conditions: 320 g/ha, visual scoring after about 3 weeks vs untreated controls, 100% = plants have died
From the text: as §2, §1

[7] = test system: Avena fatua (AVEFA); experiment: Pre-emergence herbicidal action; conditions: 320 g/ha, visual scoring after about 3 weeks vs untreated controls, 100% = plants have died
From the text: as §2, §1

[8] = test system: Echinochloa crus-galli (ECHCG); experiment: Pre-emergence herbicidal action; conditions: for Herbicidal action against ECHCG: 80 g of a.i./ha, comparative test; for Pre-emergence action ECHCG: 320 g/ha, visual scoring after about 3 weeks vs untreated controls, 100% = plants have died
From the text: as §2, §1
(§3) The compounds according to the invention were tested by the post-emergence and pre-emergence methods under the conditions described above for comparative purposes with the structurally closest compounds known from WO 2005/089551 A1 (D1).

[9] = test system: Alopecurus myosuroides (ALOMY); experiment: Pre-emergence herbicidal action; conditions: for Herbicidal action against ALOMY: 80 g of a.i./ha, comparative test; for Pre-emergence action ALOMY: 320 g/ha, visual scoring after about 3 weeks vs untreated controls, 100% = plants have died
From the text: as §2, §1, §3

[10] = test system: Polygonum convolvulus (POLCO); experiment: Pre-emergence herbicidal action; conditions: for Herbicidal action against POLCO: 80 g of a.i./ha, comparative test; for Pre-emergence action POLCO: 320 g/ha, visual scoring after about 3 weeks vs untreated controls, 100% = plants have died
From the text: as §2, §1, §3

[11] = test system: Stellaria media (STEME); experiment: Pre-emergence herbicidal action; conditions: for Herbicidal action against STEME: 80 g of a.i./ha, comparative test; for Pre-emergence action STEME: 320 g/ha, visual scoring after about 3 weeks vs untreated controls, 100% = plants have died
From the text: as §2, §1, §3

[12] = test system: Matricaria inodora (MATIN); experiment: Pre-emergence herbicidal action; conditions: for Herbicidal action against MATIN: 80 g of a.i./ha, comparative test; for Pre-emergence action MATIN: 320 g/ha, visual scoring after about 3 weeks vs untreated controls, 100% = plants have died
From the text: as §2, §1, §3

[13] = test system: Setaria viridis (SETVI); experiment: Pre-emergence herbicidal action; conditions: for Herbicidal action against SETVI: 80 g of a.i./ha, comparative test; for Pre-emergence action SETVI: 320 g/ha, visual scoring after about 3 weeks vs untreated controls, 100% = plants have died
From the text: as §2, §1, §3

[14] = test system: Viola tricolor (VIOTR); experiment: Pre-emergence herbicidal action; conditions: for Herbicidal action against VIOTR: 80 g of a.i./ha, comparative test; for Pre-emergence action VIOTR: 320 g/ha, visual scoring after about 3 weeks vs untreated controls, 100% = plants have died
From the text: as §2, §1, §3

[15] = test system: Echinochloa crus-galli (ECHCG); experiment: Post-emergence herbicidal action; conditions: for Herbicidal action against ECHCG: 80 g of a.i./ha, comparative test; for Post-emergence action ECHCG: 320 g/ha, visual rating after about 3 weeks vs untreated controls, 100% = plants have died
Method: (§4) Seeds of monocotyledonous and dicotyledonous weeds and crop plants are placed in sandy loam in plastic or organic plant pots, covered with soil and cultivated in a greenhouse under controlled growth conditions. 2 to 3 weeks after sowing, the test plants are treated at the one-leaf stage. The compounds of the invention, formulated in the form of wettable powders (WP) or as emulsion concentrates (EC), are then sprayed onto the green parts of the plants as aqueous suspension or emulsion with addition of 0.5% additive at a water application rate of 600 l/ha (converted). After the test plants have been kept in the greenhouse under optimum growth conditions for about 3 weeks, the activity of the preparations is rated visually in comparison to untreated controls. For example, 100% activity=the plants have died, 0% activity=like control plants.
as §2, §3

[16] = test system: Alopecurus myosuroides (ALOMY); experiment: Post-emergence herbicidal action
Method: as §4, §2, §3

[17] = test system: Polygonum convolvulus (POLCO); experiment: Post-emergence herbicidal action; conditions: for Post-emergence action POLCO: 320 g/ha, visual rating after about 3 weeks vs untreated controls, 100% = plants have died
Method: as §4, §2, §3

[18] = test system: Abutilon theophrasti (ABUTH); experiment: Post-emergence herbicidal action; conditions: for Herbicidal action against ABUTH: 80 g of a.i./ha, comparative test; for Post-emergence action ABUTH: 320 g/ha, visual rating after about 3 weeks vs untreated controls, 100% = plants have died
Method: as §4, §2, §3

[19] = test system: Lolium multiflorum (LOLMU); experiment: Post-emergence herbicidal action; conditions: for Herbicidal action against LOLMU: 80 g of a.i./ha, comparative test
Method: as §4, §2, §3

[20] = test system: Stellaria media (STEME); experiment: Post-emergence herbicidal action; conditions: for Herbicidal action against STEME: 80 g of a.i./ha, comparative test; for Post-emergence action STEME: 320 g/ha, visual rating after about 3 weeks vs untreated controls, 100% = plants have died
Method: as §4, §2, §3

[21] = test system: Matricaria inodora (MATIN); experiment: Post-emergence herbicidal action; conditions: for Herbicidal action against MATIN: 80 g of a.i./ha, comparative test; for Post-emergence action MATIN: 320 g/ha, visual rating after about 3 weeks vs untreated controls, 100% = plants have died
Method: as §4, §2, §3

[22] = test system: Avena fatua (AVEFA); experiment: Post-emergence herbicidal action; conditions: for Herbicidal action against AVEFA: 80 g of a.i./ha, comparative test; for Post-emergence action AVEFA: 320 g/ha, visual rating after about 3 weeks vs untreated controls, 100% = plants have died
Method: as §4, §2, §3

[23] = test system: Setaria viridis (SETVI); experiment: Post-emergence herbicidal action; conditions: for Herbicidal action against SETVI: 80 g of a.i./ha, comparative test; for Post-emergence action SETVI: 320 g/ha, visual rating after about 3 weeks vs untreated controls, 100% = plants have died
Method: as §4, §2, §3

[24] = test system: harmful plants such as Abutilon theophrasti, Alopecurus myosuroides, Amaranthus retroflexus, Avena fatua, Echinochloa crus-galli, Matricaria inodora, Pharbitis …; experiment: Post-emergence herbicidal action, summary in text; conditions: post-emergence treatment
Method: as §4
In this case, for example, in the post-emergence process, the compounds No. 1-001 and 111-001 have very good herbicidal activity (80% to 100% herbicidal action) against harmful plants such as Abutilon theophrasti, Alopecurus myosuroides, Amaranthus retroflexus, Avena fatua, Echinochloa crus-galli, Matricaria inodora, Pharbitis purpurea, Setaria viridis, Stellaria media, Veronica persica and Viola tricolor at an application rate of 0.32 kg of active substance or less per hectare. At the same time, some compounds according to the invention leave graminaceous crops such as barley, wheat, rye, millet/sorghum, maize, rice or sugarcane virtually undamaged when applied by the post-emergence method, even at high active compound dosages. Some substances are additionally also benign to dicotyledonous crops such as soya, cotton, oilseed rape or sugarbeet.

[25] = test system: Pharbitis purpurea (PHBPU); experiment: Post-emergence herbicidal action; conditions: 320 g/ha, visual rating after about 3 weeks vs untreated controls, 100% = plants have died
Method: as §4, §2

[26] = test system: Veronica persica (VERPE); experiment: Post-emergence herbicidal action; conditions: 320 g/ha, visual rating after about 3 weeks vs untreated controls, 100% = plants have died
Method: as §4, §2

[27] = test system: Amaranthus retroflexus (AMARE); experiment: Post-emergence herbicidal action; conditions: 320 g/ha, visual rating after about 3 weeks vs untreated controls, 100% = plants have died
Method: as §4, §2

[28] = test system: Viola tricolor (VIOTR); experiment: Post-emergence herbicidal action; conditions: 320 g/ha, visual rating after about 3 weeks vs untreated controls, 100% = plants have died
Method: as §4, §2

[29] = 80 g of a.i./ha, comparative test
[30] = 320 g/ha, visual rating after about 3 weeks vs untreated controls, 100% = plants have died

## Cn1nc(C(F)(F)F)cc1Oc1nc(C2CC2)cc(-n2cc(C(F)(F)F)cn2)n1 [III-001]
[1]
  herbicidal action against harmful plants (in words): good herbicidal action
[2]
  Pre-emergence action PHBPU: 100%
[3]
  Pre-emergence action VERPE: 100%
[4]
  Pre-emergence action ABUTH: 90%
[5]
  Pre-emergence action LOLMU: 90%
[6]
  Pre-emergence action AMARE: 90%
[7]
  Pre-emergence action AVEFA: 90%
[8]
  Herbicidal action against ECHCG: 100%
  Pre-emergence action ECHCG: 100%
[9]
  Herbicidal action against ALOMY: 100%
  Pre-emergence action ALOMY: 100%
[10]
  Herbicidal action against POLCO: 90%
  Pre-emergence action POLCO: 90%
[11]
  Herbicidal action against STEME: 90%
  Pre-emergence action STEME: 100%
[12]
  Herbicidal action against MATIN: 100%
  Pre-emergence action MATIN: 100%
[13]
  Herbicidal action against SETVI: 100%
  Pre-emergence action SETVI: 100%
[14]
  Herbicidal action against VIOTR: 100%
  Pre-emergence action VIOTR: 100%
[15]
  Herbicidal action against ECHCG: 80%
  Post-emergence action ECHCG: 90%
[16]; [29]
  Herbicidal action against ALOMY: 70%
[16]; [30]
  Post-emergence action ALOMY: 90%
[17]; [29]
  Herbicidal action against POLCO: 90%
[17]
  Post-emergence action POLCO: 90%
[18]
  Herbicidal action against ABUTH: 90%
  Post-emergence action ABUTH: 90%
[19]
  Herbicidal action against LOLMU: 70%
[19]; [30]
  Post-emergence action LOLMU: 90%
[20]
  Herbicidal action against STEME: 90%
  Post-emergence action STEME: 100%
[21]
  Herbicidal action against MATIN: 80%
  Post-emergence action MATIN: 90%
[22]
  Herbicidal action against AVEFA: 80%
  Post-emergence action AVEFA: 90%
[23]
  Herbicidal action against SETVI: 90%
  Post-emergence action SETVI: 100%
[24]
  herbicidal action against harmful plants (in words): good herbicidal action
[25]
  Post-emergence action PHBPU: 100%
[26]
  Post-emergence action VERPE: 100%
[27]
  Post-emergence action AMARE: 100%
[28]
  Post-emergence action VIOTR: 100%

## FC(F)(F)c1cnn(-c2cc(C3CC3)nc(Oc3csc(C(F)(F)F)c3)n2)c1 [IV-001]
[3]
  Pre-emergence action VERPE: 90%
[6]
  Pre-emergence action AMARE: 100%
[8]
  Herbicidal action against ECHCG: 70%
  Pre-emergence action ECHCG: 100%
[9]
  Herbicidal action against ALOMY: 70%
  Pre-emergence action ALOMY: 100%
[10]
  Herbicidal action against POLCO: 20%
  Pre-emergence action POLCO: 80%
[11]
  Herbicidal action against STEME: 90%
  Pre-emergence action STEME: 100%
[12]
  Herbicidal action against MATIN: 90%
  Pre-emergence action MATIN: 100%
[13]
  Herbicidal action against SETVI: 90%
  Pre-emergence action SETVI: 90%
[14]
  Herbicidal action against VIOTR: 90%
  Pre-emergence action VIOTR: 90%
[15]
  Herbicidal action against ECHCG: 70%
  Post-emergence action ECHCG: 80%
[17]
  Post-emergence action POLCO: 90%
[18]
  Herbicidal action against ABUTH: 80%
  Post-emergence action ABUTH: 90%
[19]
  Herbicidal action against LOLMU: 40%
[20]
  Herbicidal action against STEME: 100%
  Post-emergence action STEME: 100%
[21]
  Herbicidal action against MATIN: 80%
  Post-emergence action MATIN: 90%
[22]
  Herbicidal action against AVEFA: 60%
  Post-emergence action AVEFA: 80%
[23]
  Herbicidal action against SETVI: 70%
  Post-emergence action SETVI: 80%
[24]
  herbicidal action against harmful plants (in words): good herbicidal action
[25]
  Post-emergence action PHBPU: 80%
[26]
  Post-emergence action VERPE: 100%
[27]
  Post-emergence action AMARE: 100%
[28]
  Post-emergence action VIOTR: 90%
